Relative viability data for one cell line are collected here from the supplement of paper PMC10307832.

Holding throughout (assay): relative viability (nuclei count vs DMSO), 5 days (fraction); higher = more cells survive
Compound in experiment [1]: O=C(NC1CCNCC1)c1n[nH]cc1NC(=O)c1c(Cl)cccc1Cl [AT-7519] + Cc1nc(Nc2ncc(C(=O)Nc3c(C)cccc3Cl)s2)cc(N2CCN(CCO)CC2)n1 [Dasatinib] (partner 0.075 µM)
In a few lines:
(§1)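 Lung cancer cell lines in 1536-well plates were dosed by pin tool the day after seeding, either with one drug alone or with a fixed anchor-drug dose plus five library-drug doses (not always all listed) in √10 steps. After 5 days, cells were fixed and their nuclei stained in one step (final 0.05% Triton X-100, 1% formaldehyde, 1 ug/ml Hoechst), then counted on 4× images. Relative viability is the nuclei count in treated wells divided by that in vehicle wells. Values are medians of duplicate plates.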

Compound in experiment [2]: O=C(NC1CCNCC1)c1n[nH]cc1NC(=O)c1c(Cl)cccc1Cl [AT-7519] + O=C(c1cc(Cc2n[nH]c(=O)c3ccccc23)ccc1F)N1CCN(C(=O)C2CC2)CC1 [Olaparib] (partner 8 µM)
In a few lines:
as §1

Compound in experiment [3]: O=C(NC1CCNCC1)c1n[nH]cc1NC(=O)c1c(Cl)cccc1Cl [AT-7519] + CC(C)C[C@H](NC(=O)[C@H](Cc1ccccc1)NC(=O)c1cnccn1)B(O)O [Bortezomib] (partner 0.002 µM)
In a few lines: as §1

Compound in experiment [4]: C1=CC2=C(C=C(C(=C2N=C1)O)N=NC3=CC4=C(C=C3)C=C(C=C4)S(=O)(=O)O)S(=O)(=O)O + Cc1cc(Nc2cc(N3CCN(C)CC3)nc(Sc3ccc(NC(=O)C4CC4)cc3)n2)n[nH]1 [Tozasertib] (partner 0.1 µM)
An outline of the steps:
as §1

As for UMC-11, the relative viability in experiment [1] (first compound 0.01 µM) was determined as 0.413; in experiment [1] (first compound 0.03162 µM), 0.482; in experiment [1] (first compound 0.3162 µM), 0.297; in experiment [1] (first compound 1 µM), 0.238; in experiment [2] (first compound 0.01 µM), 0.333; in experiment [2] (first compound 0.03162 µM) it was 0.368. The relative viability is 0.373 in experiment [2] (first compound 0.3162 µM); 0.229 in experiment [2] (first compound 1 µM); 1.03 in experiment [3] (first compound 0.01 µM); 0.667 in experiment [3] (first compound 0.03162 µM); 0.427 in experiment [3] (first compound 0.3162 µM); 0.359 in experiment [3] (first compound 1 µM). Further, the relative viability in experiment [4] (first compound 0.08 µM) came to 0.187; in experiment [4] (first compound 0.253 µM) it was 0.193; in experiment [4] (first compound 0.8 µM), 0.212; in experiment [4] (first compound 2.53 µM), 0.205; in experiment [4] (first compound 8 µM), 0.179.
